Where “and” joins values, the source holds several entries; their conditions need not be identical. Identical values can stand only once.
Assays:
[1] = system: T84 cells (ATCC CCL-248); assay: cells; format: cell-based, human; conditions: read-out: IC50 (concentration causing 50% cell death)
[2] = system: Clostridium propionicum (DSM 6251); assay: microbe, parasite or virus in culture; format: cell-based
[3] = system: Lactobacillus acidophilus (DSM 20079); assay: microbe, parasite or virus in culture; format: cell-based
[4] = system: Bacteroides thetaioataomicron (DSM 2255); assay: microbe, parasite or virus in culture; format: cell-based
[5] = system: Caco-2 cells (ATCC HTB-37); assay: cells; format: cell-based, human; conditions: read-out: IC50 (concentration causing 50% cell death)
[6] = system: Bacillus subtilis (DSM 347); format: cell-based
[7] = system: Staphylococcus aureus (ATCC 6538P); format: cell-based
[8] = system: Bacillus cereus (DSM 31); format: cell-based
[9] = system: Aspergillus niger (ATCC 9142); format: cell-based
[10] = system: Aspergillus ochraceus (DSM 824); format: cell-based
[11] = system: Clostridium difficile (DSM 1296); assay: microbe, parasite or virus in culture; format: cell-based
[12] = system: Helicobacter pylori (ATCC 43504); assay: microbe, parasite or virus in culture; format: cell-based
[13] = system: Staphylococcus aureus MRSA USA300 (ATCC BAA-1717); format: cell-based
[14] = system: Lactococcus lactis (DSM 20481); format: cell-based
[15] = system: Clostridium coccoides (DSM 935); assay: microbe, parasite or virus in culture; format: cell-based
[16] = system: Enterococcus faecalis (DSM 13591); assay: microbe, parasite or virus in culture; format: cell-based
[17] = system: IPEC-J2 cells; assay: cells; format: cell-based, pig; conditions: read-out: IC50 (concentration causing 50% cell death)
[18] = system: Shigella flexneri (ATCC 12022); format: cell-based
[19] = system: Fusarium verticillioides (DSM 62264); format: cell-based
[20] = system: Candida albicans (DSM 10697); format: cell-based
[21] = system: Klebsiella variicola (DSM 15968); format: cell-based
[22] = system: Clostridium botulinum (DSM 1985); assay: microbe, parasite or virus in culture; format: cell-based
[23] = system: Citrobacter farmeri (ATCC 51633); format: cell-based
[24] = system: Streptococcus pyogenes (DSM 20565); assay: microbe, parasite or virus in culture; format: cell-based
[25] = system: Klebsiella pneumoniae (DSMZ 26371); format: cell-based
[26] = system: Salmonella enterica (CIP 80.39); format: cell-based
[27] = system: Fusarium graminearum (DSM 1095); format: cell-based
[28] = system: Clostridium perfringens (ATCC13124); format: cell-based
[29] = system: Micrococcus luteus (DSM 20030); format: cell-based
[30] = system: Clostridium nexile (DSM 1787); assay: microbe, parasite or virus in culture; format: cell-based
[31] = system: Acinetobacter baumannii (CIP 110431); format: cell-based
[32] = system: Streptococcus thermophilus (ATCC LMD-9); assay: microbe, parasite or virus in culture; format: cell-based
[33] = system: Listeria monocytogenes (DSM 20600); format: cell-based
[34] = system: Mycobacterium smegmatis (ATCC 700084); format: cell-based
[35] = system: Clostridium perfringens strain (ATCC 13124) and clinical strains of Clostridium perfringens; format: cell-based
[36] = system: Clostridium perfringens (ATCC 13124); format: cell-based
[37] = system: Arthrobacter gandavensis (DSM 2447); format: cell-based
[38] = system: Clostridium perfringens (ATCC 13124); format: cell-based; remark: listed apart in the source
[39] = system: Clostridium perfringens (ATCC 13124)
[40] = system: Propionibacterium acnes (ATCC 6919); assay: microbe, parasite or virus in culture; format: cell-based
[41] = system: Citrobacter rodentium (ATCC 51116); format: cell-based
[42] = system: Pseudomonas aeruginosa (CIP 107398); format: cell-based
[43] = system: Fusarium oxysporum (DSM 62316); format: cell-based
[44] = system: Penicillium verrucosum (DSM 12639); format: cell-based
[45] = system: clinical strains of Clostridium perfringens isolated from human patients or animals; format: cell-based
[46] = system: Escherichia coli (ATCC 8739); format: cell-based
[47] = system: Aspergillus flavus (DSM 1959); format: cell-based
[48] = system: human (Caco-2 and T84) and pig (IPEC-J2) intestinal cells

Substance: Destruxin B
- IC50 [1]: > 100 µM
- MIC [2]: >100 µM
- MIC [3]: >100 µM
- MIC [4]: >100 µM
- IC50 [5]: > 100 µM
- MIC [6]: >100 µM
- MIC [7]: >100 µM
- MIC [8]: >100 µM
- MIC [9]: >100 µM
- MIC [10]: >100 µM
- MIC [11]: >100 µM
- MIC [12]: >100 µM
- MIC [13]: >100 µM
- MIC [14]: >100 µM
- MIC [15]: >100 µM
- MIC [16]: >100 µM
- IC50 [17]: > 100 µM
- MIC [18]: >100 µM
- MIC [19]: >100 µM
- MIC [20]: >100 µM
- MIC [21]: >100 µM
- MIC [22]: >100 µM
- MIC [23]: >100 µM
- MIC [24]: >100 µM
- MIC [25]: >100 µM
- MIC [26]: >100 µM
- MIC [27]: >100 µM
- change of MIC during exposure [28]: do not change or change only slightly
- MIC [29]: >100 µM
- MIC [30]: >100 µM
- MIC [31]: >100 µM
- MIC [32]: >100 µM
- MIC [33]: >100 µM
- MIC [34]: >100 µM
- minimum bactericidal concentrations (BMC values) [35]: identical to the MIC values
- permeabilisation of the bacterial membrane [36]: no permeabilisation
- MIC [37]: >100 µM
- morphological phenotype (mechanism of action) [38]: hypercondensation of bacterial DNA
- MIC (mg/L) [39]: 1.78 mg/L
- MIC [40]: >100 µM
- MIC [41]: >100 µM
- MIC [42]: >100 µM
- MIC [43]: >100 µM
- MIC [44]: >100 µM
- MIC [45]: 3 µM and 1.5 µM
- MIC [46]: >100 µM
- MIC [47]: >100 µM
- toxicity to intestinal cells [48]: not toxic

Reference: patent US20220133842A1 (priority 2019, published 2022)
